# Measured values reported in patent US9718790B2, “Triazine derivative and pharmaceutical composition having an analgesic activity comprising the same” (SHIONOGI & CO., LTD., priority 2010, dated 2017).
# Legend:
# human P2X3 receptor = human P2X3 receptor (Homo sapiens (Human), UniProt P56373); assay: Evaluation of human P2X3 receptor inhibitory activity (Fluo-3 calcium fluorescence, FDSS 3000, ATP stimulation); format: cell-based;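 further: stimulus was 50 nM ATP with fluorescence followed for 3 min, and the response per well was peak post-ATP fluorescence divided by the reading at measurement start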
# [1] = tested on: partial sciatic nerve ligation model in rats; assay: Analgesic effect in a Seltzer model, Evaluation (1): mechanical allodynia, von Frey filaments; format: in vivo; conditions: rat, oral single administration, at 3 hours, read-out: analgesic effect, percent reversal of mechanical allodynia
# Text: Rats were anaesthetized using isoflurane/O2 inhalation anaesthesia. After induction of anesthesia, the left thigh was shaved. An incision was made in the skin just below the hip bone. The muscle was bluntly dissected to expose the sciatic nerve. One third (⅓) to one half (½) of the sciatic nerve thickness was tightly ligated and the wound was closed. The right thigh is used as a sham-operated control. The right thigh undergoes an identical procedure with the left hind limb, however, the sciatic nerve is not manipulated or ligated.
# Two weeks after nerve ligation, the effect on mechanical allodynia was assessed using a series of von Frey filaments. For habituation, the rats were placed into a plastic cage on a wire mesh bottom. The mechanical sensitivity (mechanical threshold) of the hind paws was estimated with a series of von Frey filaments (0.4-20 g). The measurement of mechanical sensitivity of the right and left hind paws was performed to obtain predose mechanical sensitivity. The rats showing thee threshold change from 0.6 to 2 g (in nerve ligated side) and 8 to 15 g (in sham operated side) were used in the experiments. On the day belone the experiment, the rats were evaluated with a series of von Frey filaments to familiarize them with the test procedure. The adopted animal was administrated with the test compounds. The test compounds were homogenized with mortar and pestle and suspended or diluted in 0.5% Methyl Cellulose to prepare 0.1-2.0 mg/mL/kg suspension and orally administered to rat using a syringe attached with a sonde. Post-dose mechanical sensitivities of the right and left hind paws were measured at approximately 1 to 5 hours after drug administration. Percent reversal of mechanical allodynia for each rat was calculated using the following formula. The analgesic effects of the compounds were compared.
# CYP1A2 = CYP1A2 (Homo sapiens (Human), UniProt P05177); assay: CYP inhibition test, pooled human hepatic microsome, 7-ethoxyresorufin O-deethylation; format: in vitro ADME; conditions: substrate ethoxyresorufin
# Experimental: (§1) Using commercially available pooled human hepatic microsome, and employlng, as markers, 7-ethoxyresorufin O-deethylation (CYP1A2), tolbutamide methyl-hydroxylation (CYP2C9), mephenyloin 4′-hydroxylation (CYP2C19), dextromethorphan O-demethylation (CYP2D6), and terfenedine hydroxylation as typical substrate metabolism reactions of human main five CYP enzyme forms (CYP1A2, 2C9, 2C19, 2D6, 3A4), an inhibitory degree of each metabolite production amount by a test compound was assessed.
# (§2) The reaction conditions were as follows: substrate, 0.5 μmol/L ethoxyresorufin (CYP1A2), 100 μmol/L tolbutamide (CYP2C9), 50 μmol/L S-mephenitoin (CYP2C19), 5 μmol/L dextromethorphan (CYP2D6), 1 μmol/L terfenedine (CYP3A4) reaction time, 15 minutes; reaction temperature, 37° C; enzyme, pooled human hepatic microsome 0.2 mg protein/mL; test drug concentration, 1.0, 5.0, 10, 20 μmol/L (four points).
# (§3) Each five kinds of substrates, human hepatic microsome, or a test drug in 50 mmol/L Hepes buffer as a reaction solution was added to a 96-well plate at the composition as described above, NADPH, as a cofactor was added to initiate metabolism reactions as markers and, after the incubation at 37° C. for 15 minutes, a methanol/acetonitrile=1/1 (v/v) solution was added to stop the reaction. After the centrifugation at 3000 rpm for 15 minutes, resorufin (CYP1A2 metabolite) in the supernatant was quantified by a fluorescent multilabel counter and tributamide hydroxide (CYP2CP metabolite), mephenyloin 4′ hydroxide (CYP2C19 metabolite), […] (CYP2D6 metabolite), and terfenadine alcohol (CYP3A4 metabolite) were quantified by LC/MS/MS.
# CYP2C9 = CYP2C9 (Homo sapiens (Human), UniProt P11712); assay: CYP inhibition test, pooled human hepatic microsome, tolbutamide methyl-hydroxylation; format: in vitro ADME; conditions: substrate tolbutamide
# Experimental: as §1, §2, §3
# CYP2C19 = CYP2C19 (Homo sapiens (Human), UniProt P33261); assay: CYP inhibition test, pooled human hepatic microsome, mephenytoin 4'-hydroxylation; format: in vitro ADME; conditions: substrate S-mephenitoin
# Experimental: as §1, §2, §3
# CYP2D6 = CYP2D6 (Homo sapiens (Human), UniProt P10635); assay: CYP inhibition test, pooled human hepatic microsome, dextromethorphan O-demethylation; format: in vitro ADME; conditions: substrate dextromethorphan
# Experimental: as §1, §2, §3
# CYP3A4 = CYP3A4 (Homo sapiens (Human), UniProt P08684); assay: CYP inhibition test, pooled human hepatic microsome, terfenedine hydroxylation; format: in vitro ADME; conditions: substrate terfenedine
# Experimental: as §1, §2, §3
# [2] = Bioavailability (BA) test; format: in vivo; conditions: plasma; mice or SD rats, oral vs intravenous AUC
# Experimental: (1) Animals: Mice or SD rats were used
# (2) Breeding conditions: Mice or SD rats were allowed to freely take solid food and sterilized tap water.
# (3) Dose and grouping: orally or intravenously administered at a predetermined dose; grouping was as follows (Dose depends one the compound) • Oral administration: 0.3 to 30 mg/kg (n=2 to 3) • Intravenous administration: 0.5 to 10 mg/kg (n=2 to 3)
# (4) Preparation of dosing solution: for oral administration, in a solution or a suspension state: for intravenous administration, in a solubilized state
# (5) Administration method: in oral administration, forcedly administer into ventriculus with oral probe; in intravenous administration, administer from caudal vein with a needle-equipped syringe
# (6) Evaluation items: blood was collected over time, and the plasma concentration of drug was measured by LC/MS/MS
# (7) Statistical analysis: regarding the transition of the plasma concentration or the present compound, the area under the plasma concentration-time curve (AUC) was calculated by non-linear least squares program WinNonlin (Registered trade name), and the bioavailability (BA) was calculated the AUCs of the oral administration group and intravenous administration group
# serum = assay: Protein binding test (equilibrium dialysis, serum); format: in vitro ADME; conditions: 37° C., 24 hours, 2 μg/mL
# Experimental: The unbound fraction the present compound in serum was measured using serum of various species.
# The reactive conditions are as follows: Evaluation method, Equilibrium dialysis; Reaction time, 24 hours; Reaction temperature, 37° C.; Concentration of the present compound, 2 μg/mL.
# The test solution was added to each serum and the mixture was agitated to prepare the serum samples at the concentration mentioned above. Each serum sample was added into one side or the cell and phosphate buffered saline (PBS) was added into the other side to perform equilibrium dialysis at 37° C. for 24 hours. Then, the concentration of the compounds in the samples that were obtained from both sides was measured by LC/MS/MS.
# (Result) The ratio of PBS concentration to serum concentration is expressed as unbound fraction.
# [3] = C6BU-1 cells stably expressing human P2X3 receptor, Fluo-3 fluorescence, FDSS 3000
# [4] = C6BU-1 cells stably expressing human P2X3 receptor
# [5] = human P2X3 receptor, Test Example 1
# Sequence of human P2X3 receptor (P56373 whole entry): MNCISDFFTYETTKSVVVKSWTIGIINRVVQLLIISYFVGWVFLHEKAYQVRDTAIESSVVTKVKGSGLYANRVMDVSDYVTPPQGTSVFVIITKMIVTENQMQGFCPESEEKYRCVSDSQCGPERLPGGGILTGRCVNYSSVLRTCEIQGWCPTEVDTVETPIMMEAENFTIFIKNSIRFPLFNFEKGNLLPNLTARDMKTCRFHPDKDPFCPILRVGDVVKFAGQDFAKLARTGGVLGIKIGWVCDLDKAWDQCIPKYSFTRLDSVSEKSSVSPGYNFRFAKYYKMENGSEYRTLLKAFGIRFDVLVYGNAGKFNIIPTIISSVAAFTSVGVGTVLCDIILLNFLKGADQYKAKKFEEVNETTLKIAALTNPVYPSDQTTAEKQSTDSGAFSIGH
# Sequence of CYP2C9 (P11712 whole entry): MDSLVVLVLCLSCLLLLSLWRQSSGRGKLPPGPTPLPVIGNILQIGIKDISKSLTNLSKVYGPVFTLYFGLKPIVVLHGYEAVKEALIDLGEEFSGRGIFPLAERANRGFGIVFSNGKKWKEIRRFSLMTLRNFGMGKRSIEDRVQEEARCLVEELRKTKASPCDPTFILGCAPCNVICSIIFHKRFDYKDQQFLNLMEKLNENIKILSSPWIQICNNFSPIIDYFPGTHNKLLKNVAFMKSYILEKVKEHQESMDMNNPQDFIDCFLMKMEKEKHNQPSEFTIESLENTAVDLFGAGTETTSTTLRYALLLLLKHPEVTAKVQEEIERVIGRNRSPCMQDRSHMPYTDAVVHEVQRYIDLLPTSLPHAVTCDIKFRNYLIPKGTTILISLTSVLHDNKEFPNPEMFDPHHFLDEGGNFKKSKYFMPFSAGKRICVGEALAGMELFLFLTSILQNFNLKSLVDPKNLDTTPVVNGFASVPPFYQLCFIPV
# Sequence of CYP1A2 (P05177 whole entry): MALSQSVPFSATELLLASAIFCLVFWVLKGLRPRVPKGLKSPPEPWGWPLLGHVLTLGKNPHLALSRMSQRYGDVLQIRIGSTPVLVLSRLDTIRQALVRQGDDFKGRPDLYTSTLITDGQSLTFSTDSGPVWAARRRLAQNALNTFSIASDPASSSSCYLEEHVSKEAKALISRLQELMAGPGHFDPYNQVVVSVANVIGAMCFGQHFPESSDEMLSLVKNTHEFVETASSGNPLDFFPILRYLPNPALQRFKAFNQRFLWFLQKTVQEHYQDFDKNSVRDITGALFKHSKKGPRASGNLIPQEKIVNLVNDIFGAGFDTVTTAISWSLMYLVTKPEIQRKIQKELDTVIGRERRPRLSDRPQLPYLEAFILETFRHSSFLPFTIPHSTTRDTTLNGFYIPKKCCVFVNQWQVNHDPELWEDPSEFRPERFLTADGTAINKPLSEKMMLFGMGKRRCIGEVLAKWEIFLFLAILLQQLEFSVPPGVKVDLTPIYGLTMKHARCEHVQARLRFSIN
# Sequence of CYP3A4 (P08684 whole entry): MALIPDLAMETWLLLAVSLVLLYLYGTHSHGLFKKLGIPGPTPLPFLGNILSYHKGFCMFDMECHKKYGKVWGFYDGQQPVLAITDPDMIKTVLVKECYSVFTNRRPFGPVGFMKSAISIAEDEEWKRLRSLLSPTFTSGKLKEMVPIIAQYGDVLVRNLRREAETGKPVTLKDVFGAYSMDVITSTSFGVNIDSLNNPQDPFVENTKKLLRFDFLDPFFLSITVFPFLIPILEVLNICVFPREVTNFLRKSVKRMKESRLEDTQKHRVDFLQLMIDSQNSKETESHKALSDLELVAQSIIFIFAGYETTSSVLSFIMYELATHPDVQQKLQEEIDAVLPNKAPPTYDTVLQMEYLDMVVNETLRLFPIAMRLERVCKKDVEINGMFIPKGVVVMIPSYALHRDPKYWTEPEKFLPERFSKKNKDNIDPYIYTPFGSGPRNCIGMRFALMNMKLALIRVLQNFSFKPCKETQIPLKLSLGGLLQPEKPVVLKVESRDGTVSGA
# Sequence of CYP2D6 (P10635 whole entry): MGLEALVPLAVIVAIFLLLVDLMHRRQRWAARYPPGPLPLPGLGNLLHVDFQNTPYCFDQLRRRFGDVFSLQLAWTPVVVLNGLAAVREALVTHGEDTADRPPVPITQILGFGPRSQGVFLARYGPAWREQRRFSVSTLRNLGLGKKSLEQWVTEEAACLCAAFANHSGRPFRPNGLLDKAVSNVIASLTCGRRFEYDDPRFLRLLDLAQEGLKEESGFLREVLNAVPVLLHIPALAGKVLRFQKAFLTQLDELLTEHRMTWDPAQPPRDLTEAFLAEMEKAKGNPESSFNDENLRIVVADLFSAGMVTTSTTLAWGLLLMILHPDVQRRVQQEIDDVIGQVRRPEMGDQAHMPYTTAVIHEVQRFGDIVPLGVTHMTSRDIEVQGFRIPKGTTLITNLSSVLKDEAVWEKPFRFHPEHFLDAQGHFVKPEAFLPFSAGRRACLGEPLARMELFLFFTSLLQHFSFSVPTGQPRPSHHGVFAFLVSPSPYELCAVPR
# Sequence of CYP2C19 (P33261 whole entry): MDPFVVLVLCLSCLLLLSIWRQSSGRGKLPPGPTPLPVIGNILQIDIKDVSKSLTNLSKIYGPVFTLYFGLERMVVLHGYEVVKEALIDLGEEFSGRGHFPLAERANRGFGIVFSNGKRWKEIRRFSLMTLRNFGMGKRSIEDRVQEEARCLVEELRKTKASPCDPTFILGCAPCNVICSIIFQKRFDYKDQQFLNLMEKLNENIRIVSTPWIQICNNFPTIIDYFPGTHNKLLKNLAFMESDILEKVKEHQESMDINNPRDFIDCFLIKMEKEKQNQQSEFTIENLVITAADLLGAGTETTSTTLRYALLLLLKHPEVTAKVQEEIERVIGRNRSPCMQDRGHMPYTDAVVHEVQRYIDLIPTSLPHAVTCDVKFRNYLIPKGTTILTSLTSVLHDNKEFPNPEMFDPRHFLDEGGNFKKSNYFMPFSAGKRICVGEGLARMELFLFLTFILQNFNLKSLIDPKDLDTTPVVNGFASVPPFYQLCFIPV
SMILES,inhibition in vivo at 3 mg/kg [1] [%],IC50 (human P2X3 receptor; [5]) [nM],further results
Cc1ccc(Cn2c(=O)n([C@@H](C)[C@@H](C)C(=O)O)c(=O)[nH]/c2=N\c2ccc(OC(C)C)c(Cl)c2)cc1 [Compound I-0931],> 30,–,IC50 (human P2X3 receptor; [3]): 12 nM
Cc1cc(Oc2ccc(/N=c3\[nH]c(=O)n(C[C@H](O)CO)c(=O)n3Cc3ccc(Cl)cc3)cc2)no1 [Compound I-1757],> 30,–,IC50 (human P2X3 receptor; [3]): 12 nM
CCn1c(=O)[nH]/c(=N\c2ccc(Oc3ncc(C(=O)O)s3)cc2)n(Cc2ccc(Cl)cc2)c1=O [Compound I-2153],> 30,–,IC50 (human P2X3 receptor; [4]): 6 nM
CC(CO)(CO)Cn1c(=O)[nH]/c(=N\c2ccc(Oc3ccon3)cc2)n(Cc2ccc(Cl)cc2)c1=O [Compound I-2369],> 30,3,–
Cc1cc(/N=c2\[nH]c(=O)n([C@@H](C)[C@@H](C)C(=O)O)c(=O)n2Cc2ccc(Cl)cc2)ccc1OC(C)C [Compound I-0826],> 30,19,–
O=c1[nH]/c(=N\c2ccc(OCC3CC3)cc2)n(Cc2ccc(Cl)cc2)c(=O)n1CC(CO)CO [Compound I-1849],> 30,–,IC50 (human P2X3 receptor; [3]): 7 nM
COC(=O)[C@@H](C)Cn1c(=O)[nH]/c(=N\c2cccc(C3C=CCCC3)c2)n(Cc2ccc(C)cc2)c1=O (stereo partly shown) [Compound I-1079],–,–,IC50 (CYP1A2): > 20000 nM; IC50 (CYP2C9): > 20000 nM; IC50 (CYP2C19): > 20000 nM; IC50 (CYP2D6): > 20000 nM; IC50 (CYP3A4): > 20000 nM; bioavailability [2]: > 99.9%
CCn1c(=O)[nH]/c(=N\c2ccc(Oc3ccc(C(N)=O)nn3)cc2)n(Cc2ccc(Cl)cc2)c1=O [Compound I-2283],> 30,< 4,–
O=c1[nH]/c(=N\c2ccc(Oc3ccon3)cc2)n(Cc2ccc(Cl)cc2)c(=O)n1C[C@H](O)CO [Compound I-2293],> 30,6,–
CNC(=O)c1cc(Oc2ccc(/N=c3\[nH]c(=O)n(C)c(=O)n3Cc3ccc(Cl)cc3)cc2)ccn1 [Compound I-2011],–,–,IC50 (human P2X3 receptor; [4]): 10 nM; unbound fraction (ratio of PBS concentration to serum concentration) (serum): 0.5%
O=c1[nH]/c(=N\c2ccc(Oc3ccon3)cc2)n(Cc2ccc(Cl)cc2)c(=O)n1CCO [Compound I-2292],> 30,12,–
Cc1ccc(Cn2c(=O)n(C[C@H](C)C(=O)O)c(=O)[nH]/c2=N\c2ccc(CC(C)C)c(Cl)c2)cc1 [Compound I-1373],> 30,–,IC50 (human P2X3 receptor; [4]): 4 nM
Cn1c(=O)[nH]/c(=N\c2ccc(Oc3cccc(C(=O)O)n3)cc2)n(Cc2ccc(Cl)cc2)c1=O [Compound I-2272],> 30,8,–
Cn1c(=O)[nH]/c(=N\c2ccc(Oc3cnc(C#N)cn3)cc2)n(Cc2ccc(Cl)cc2)c1=O [Compound I-2428],> 30,5,–
COC(=O)[C@H](C)[C@H](C)n1c(=O)[nH]/c(=N\c2ccc3oc(C)cc3c2)n(Cc2ccc(C)cc2)c1=O [Compound I-1325],–,–,IC50 (human P2X3 receptor; [4]): 28 nM
Cc1ccc(Cn2c(=O)n(C)c(=O)[nH]/c2=N\c2ccc(Oc3ccc(C(=O)O)nn3)cc2)cc1 [Compound I-2382],–,54,–
O=c1[nH]/c(=N\c2ccc(Oc3nccs3)cc2)n(Cc2ccc(Cl)cc2)c(=O)n1CC(O)CO (stereo not shown) [Compound I-2448],–,11,–
CC(=O)NCCn1c(=O)[nH]/c(=N\c2ccc(CC(C)C)c(Cl)c2)n(Cc2ccc(Cl)cc2)c1=O [Compound I-1611],–,–,IC50 (human P2X3 receptor; [3]): 8 nM
NC(=O)Cn1c(=O)[nH]/c(=N\c2ccc(Oc3ccnc(O)c3)cc2)n(Cc2ccc(Cl)cc2)c1=O [Compound I-1977],–,–,IC50 (human P2X3 receptor; [4]): 5 nM
